Our source for the EC50 and AC50 values is patent publication US20240316038A1, “APOL1 INHIBITORS AND METHODS OF USE” (Maze Therapeutics, Inc., priority 2021, published 2024).

Some results are limits rather than exact numbers.

Test [1] deals with T1, APOL1 G2 (Homo sapiens, UniProt O14791, DEL388-389).
T1 construct: expressed in transfected cells; host or cells: HEK293 T-REx clonal lines: HEK T-REx/GCaMP6f/APOL1 G2 K6.3 in A1, HEK293/T-REx APOL1 G2/clone #2 in A2
T1 sequence (O14791 with tags, fused parts or gaps DEL388-389): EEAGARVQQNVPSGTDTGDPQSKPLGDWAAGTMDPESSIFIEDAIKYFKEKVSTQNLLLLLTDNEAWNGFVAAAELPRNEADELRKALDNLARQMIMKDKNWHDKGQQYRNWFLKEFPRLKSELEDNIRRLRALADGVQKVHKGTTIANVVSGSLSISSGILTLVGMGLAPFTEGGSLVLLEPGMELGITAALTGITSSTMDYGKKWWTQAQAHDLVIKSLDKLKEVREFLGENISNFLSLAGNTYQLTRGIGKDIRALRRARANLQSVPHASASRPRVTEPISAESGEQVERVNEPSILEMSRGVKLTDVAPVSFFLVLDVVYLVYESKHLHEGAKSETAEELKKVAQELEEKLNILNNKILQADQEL
The test is described as follows: Rescue of HEK293 cell death caused by overexpression of APOL1 (CellTiter-Glo luminescence), HEK293/T-REx APOL1 G2/clone #2. Type of test: cell-based. Conditions: reversal of cell death caused by overexpression of APOL1; geometric mean of at least 2 assay runs, † = single assay run (technical duplicate). In short, it runs like this:
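HEK293/T-REx APOL1 G2 clone #2 cells, 5,000/well, induced with 6 ng/mL doxycycline and exposed to compound (8-point, 3-fold dilutions, 0.5% DMSO) for 17 h at 37 °C. Viability by CellTiter-Glo luminescence; EC50 for reversal of APOL1-induced death from a four-parameter logistic fit, geometric mean of ≥2 runs.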
(ATP-based viability assays read luminescence as a measure of living cells.)

The target in test [2] is T1, APOL1 G2. The test is described as follows: APOL1 calcium transport inhibition assay (GCaMP6f calcium influx, FLIPR) in HEK T-REx/GCaMP6f/APOL1 G2 K6.3 cells. Type of test: cell-based. Conditions: inhibition of APOL1-mediated calcium influx; geometric mean of at least 2 assay runs, † = single assay run (technical duplicate). In short, it runs like this: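 HEK293 cells stably expressing GCaMP6f, APOL1 G2 induced 6 h with doxycycline (20 ng/mL added), then washed into Ca2+-free Tyrode's buffer pH 7.4. Compounds (8-point dose response) preincubated 10 min at room temperature, then Ca2+ injected to 5 mM final and influx read on FLIPR. AC50 reported as geometric mean of runs.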

As for `CN(c1ccc(OCC2CCCN(CCc3cccc(Cl)c3)C2)cc1)S(C)(=O)=O` (stereo not drawn) [Compound 7, N-(4-((1-(3-chlorophenethyl)piperidin-3-yl)methoxy)phenyl)-N-methylmethanesulfonamide], the EC50 at APOL1 G2 [1] was determined as 0.322 µM. Besides, the AC50 on APOL1 G2 [2] is less than 0.253 µM.
In the case of `CN(c1ccc(OCC2CN(CCc3cccc(Cl)c3)CCCO2)cc1)S(C)(=O)=O` (stereo not drawn) [Compound 10, N-(4-((4-(3-chlorophenethyl)-1,4-oxazepan-2-yl)methoxy)phenyl)-N-methylmethane-sulfonamide], the EC50 on APOL1 G2 [1] amounted to 2.45 µM. The AC50 at APOL1 G2 [2] was 1.72 µM.
Take `CS(=O)(=O)c1ccc(OC[C@@H]2CN(CCc3cccc(Cl)c3)CCN2)cc1` [Compound 13, (S)-1-(3-chlorophenethyl)-3-((4-(methylsulfonyl)phenoxy)methyl)piperazine]: the EC50 at APOL1 G2 [1] worked out at 0.445 µM. The AC50 at APOL1 G2 [2] is 0.143 µM.
The corresponding values for `CS(=O)(=O)c1ccc(OC[C@H]2CN(CCc3cccc(Cl)c3)CCN2)cc1` [Compound 14, (R)-1-(3-chlorophenethyl)-3-((4-(methylsulfonyl)phenoxy)methyl)piperazine] are more than 30 µM and 3.34 µM.
Taken in the same sequence, the figures for `CS(=O)(=O)c1ccc(OC[C@@H]2CCCN(CCc3cccc(Cl)c3)C2)cc1` [Compound 15, (R)-1-(3-chlorophenethyl)-3-((4-(methylsulfonyl)phenoxy)methyl)piperidine] were 0.567 µM and 0.287 µM.
`CS(=O)(=O)c1ccc(OC[C@H]2CCCN(CCc3cccc(Cl)c3)C2)cc1` [Compound 16, (S)-1-(3-chlorophenethyl)-3-((4-(methylsulfonyl)phenoxy)methyl)piperidine]: at APOL1 G2 [1], the EC50 came out at 0.329 µM. Also, the AC50 on APOL1 G2 [2] turned out to be 0.231 µM.
The corresponding values for `CS(=O)(=O)c1ccc(OC[C@H]2CCCN(CC(O)c3cccc(Cl)c3)C2)cc1` (stereo partly drawn) [Compound 17, 1-(3-chlorophenyl)-2-((S)-3-((4-(methylsulfonyl)phenoxy)methyl)piperidin-1-yl)ethan-1-ol] are 0.671 µM and 1.37 µM.
Turning to `CS(=O)(=O)c1ccc(OC[C@@H]2CCCN(CC(O)c3cccc(Cl)c3)C2)cc1` (stereo partly drawn) [Compound 20, 1-(3-chlorophenyl)-2-((R)-3-((4-(methylsulfonyl)phenoxy)methyl)piperidin-1-yl)ethanol], the EC50 at APOL1 G2 [1] turned out to be 1.36 µM. At APOL1 G2 [2], the AC50 came to 1.76 µM.
`CS(=O)(=O)c1ccc(CCC2CCCN(CCc3cccc(Cl)c3)C2)cc1` (stereo not drawn) [Compound 39, 1-(3-chlorophenethyl)-3-(4-(methylsulfonyl)phenethyl)piperidine]: the EC50 at APOL1 G2 [1] turned out to be 0.904 µM. Besides, the AC50 on APOL1 G2 [2] came out at 0.249 µM.
The corresponding values for `CC1(C)CC(COc2ccc(S(C)(=O)=O)cc2)CN1CCc1cccc(Cl)c1` (stereo not drawn) [Compound 42, 1-(3-chlorophenethyl)-2,2-dimethyl-4-((4-(methylsulfonyl)phenoxy)methyl) pyrrolidine] are 0.059 µM and 0.477 µM.
The corresponding values for `CN(c1ccc(O[C@H]2C[C@H](NCCc3cccc(Cl)c3)C2)cc1)S(C)(=O)=O` [Compound 48, trans-N-(4-(3-((3-chlorophenethyl)amino)cyclobutoxy)phenyl)-N-methylmethanesulfonamide] are 2.54 µM and 1.92 µM.
Taken in the same sequence, the figures for `CN(c1ccc(OC[C@H]2CCN(CCc3cccc(Cl)c3)C2)cc1)S(C)(=O)=O` [Compound 49, (S)-N-(4-((1-(3-chlorophenethyl)pyrrolidin-3-yl)methoxy)phenyl)-N-methylmethanesulfonamide] were 0.957 µM and 0.847 µM.
As to `CN(c1ccc(OC[C@@H]2CCN(CCc3cccc(Cl)c3)C2)cc1)S(C)(=O)=O` [Compound 50, (R)-N-(4-((1-(3-chlorophenethyl)pyrrolidin-3-yl)methoxy)phenyl)-N-methylmethanesulfonamide], on APOL1 G2 [1], the EC50 amounted to 2.02 µM. On APOL1 G2 [2], the AC50 came out at 1.32 µM.
The corresponding values for `CS(=O)(=O)c1ccc(OC[C@H]2CCN(CCc3cccc(Cl)c3)C2)cc1` [Compound 51, (S)-1-(3-chlorophenethyl)-3-((4-(methylsulfonyl)phenoxy)methyl)pyrrolidine] are 1.49 µM and 0.727 µM.
Taken in the same sequence, the figures for `CN(c1ccc(OC[C@@H](O)CN(CCc2cccc(Cl)c2)CC2CC2)cc1)S(C)(=O)=O` [Compound 59, (S)—N-(4-(3-((3-chlorophenethyl)(cyclopropylmethyl)amino)-2-hydroxypropoxy)phenyl)-N-methylmethanesulfonamide] were 1.06 µM and 0.245 µM.
The corresponding values for `CCN(CCc1cccc(Cl)c1)C[C@H](O)COc1ccc(N(C)S(C)(=O)=O)cc1` [Compound 60, (S)-N-(4-(3-((3-chlorophenethyl)(ethyl)amino)-2-hydroxypropoxy)phenyl)-N-methylmethanesulfonamide] are 0.306 µM and less than 0.267 µM.
Consider `C[C@H](CNCCc1cccc(Cl)c1)COc1ccc(N(C)S(C)(=O)=O)cc1` [Compound 61, (R)—N-(4-(3-((3-chlorophenethyl)amino)-2-methylpropoxy)phenyl)-N-methylmethanesulfonamide], for which, on APOL1 G2 [1], the EC50 is 0.933 µM. Also, the half-maximal activity concentration (AC50) at APOL1 G2 [2] is 0.376 µM.
For the molecule `CS(=O)(=O)c1ccc(OC[C@@H](O)CN2CCCCC2Cc2cccc(Cl)c2)cc1` (stereo partly drawn) [Compound 62, (2S)-1-(2-(3-chlorobenzyl)piperidin-1-yl)-3-(4-(methylsulfonyl)phenoxy)propan-2-ol], the EC50 on APOL1 G2 [1] stood at 0.642 µM. Also, the AC50 on APOL1 G2 [2] was 0.396 µM.
The corresponding values for `CN(c1ccc(OC[C@@H](O)CN[C@H]2C[C@H](c3cccc(Cl)c3)C2)cc1)S(C)(=O)=O` [Compound 65, N-(4-((S)-3-((trans-3-(3-chlorophenyl)cyclo-butyl)amino)-2-hydroxypropoxy)phe-nyl)-N-methylmethanesulfon-amide] are 0.955 µM and 0.258 µM.
Taken in the same sequence, the figures for `CS(=O)(=O)c1ccc(OC[C@@H](O)CN[C@H]2C[C@H](c3cccc(Cl)c3)C2)cc1` [Compound 66, (S)-1-((trans-3-(3-chlorophenyl)cyclo-butyl)amino)-3-(4-(methylsulfonyl)phe-noxy)propan-2-ol] were 1.38 µM and 0.468 µM.
Consider `CS(=O)(=O)c1ccc(OC[C@H](O)CN[C@H]2C[C@H](c3cccc(Cl)c3)C2)cc1` [Compound 67, (R)-1-((trans-3-(3-chlorophenyl)cyclo-butyl)amino)-3-(4-(methylsulfonyl)phe-noxy)propan-2-ol], for which the EC50 at APOL1 G2 [1] was 1.35 µM. The AC50 on APOL1 G2 [2] is 0.34 µM.
Taken in the same sequence, the figures for `CN(c1ccc(OC[C@@H](O)CN2CCC(c3cccc(Cl)c3)C2(C)C)cc1)S(C)(=O)=O` (stereo partly drawn) [Compound 68, N-(4-((2S)-3-(3-(3-chlorophenyl)-2,2-dimethylpyrrolidin-1-yl)-2-hydroxypropoxy)phe-nyl)-N-methylmethanesulfon-amide] were 0.591 µM and 0.916 µM.
In the case of `CN(c1ccc(OC[C@H](O)CN2CCC(c3cccc(Cl)c3)C2(C)C)cc1)S(C)(=O)=O` (stereo partly drawn) [Compound 71, N-(4-((2R)-3-(3-(3-chlorophenyl)-2,2-dimethylpyrrolidin-1-yl)-2-hydroxypropoxy)phe-nyl)-N-methylmethanesulfon-amide], on APOL1 G2 [1], the EC50 was determined as 1.96 µM. Further, the AC50 at APOL1 G2 [2] was determined as 0.943 µM.
As to `CN(c1ccc(OC[C@@H](O)CN2CCC(c3cccc(Cl)c3)C2)cc1)S(C)(=O)=O` (stereo partly drawn) [Compound 74, N-(4-((2S)-3-(3-(3-chlorophenyl)pyrro-lidin-1-yl)-2-hydroxypropoxy)phe-nyl)-N-methylmethanesulfon-amide], at APOL1 G2 [1], the EC50 is 2.58 µM. Moreover, the AC50 on APOL1 G2 [2] was determined as 1.29 µM.
The corresponding values for `CN(c1ccc(OC[C@H](O)CN2CCC(c3cccc(Cl)c3)C2)cc1)S(C)(=O)=O` (stereo partly drawn) [Compound 77, N-(4-((2R)-3-(3-(3-chlorophenyl)pyrro-lidin-1-yl)-2-hydroxypropoxy)phe-nyl)-N-methylmethanesulfon-amide] are more than 6.3 µM and 1.67 µM.
The corresponding values for `CN(c1ccc(OC[C@@H](O)CN2CCOC(c3cccc(Cl)c3)C2)cc1)S(C)(=O)=O` (stereo partly drawn) [Compound 80, N-(4-((2S)-3-(2-(3-chlorophenyl)morpho-lino)-2-hydroxypropoxy)phe-nyl)-N-methylmethanesulfon-amide] are 13 µM and 13.9 µM.
The corresponding values for `CN(c1ccc(OC[C@H](O)CN2CCOC(c3cccc(Cl)c3)C2)cc1)S(C)(=O)=O` (stereo partly drawn) [Compound 83, N-(4-((2R)-3-(2-(3-chlorophenyl)morpho-lino)-2-hydroxypropoxy)phe-nyl)-N-methylmethanesulfon-amide] are more than 30 µM and more than 25 µM.

Usually EC50 stands for the concentration needed to bring the measured effect to its halfway point. As a reminder, the AC50 is the concentration giving half of the maximal activity seen.
